Legend:
[1] = Solubility of nabilone in water and common solvents (USP classification); assay type: physicochemical
From the text: Nabilone is difficult to solubilize in most solvents such that preparing a liquid composition comprising nabilone is very challenging. […] These solvents are not suitable for use in human pharmaceutical formulations.

[2] = Solubility of nabilone in sesame oil; assay type: physicochemical; conditions: 5% w/w of nabilone in sesame oil; for Nabilone recovered from oil phase (w/w in mg/mL): 250 mg/g added
From the text: It is also challenging to solubilize nabilone in pharmaceutically acceptable oils, even at elevated temperatures.

CCCCCCC(C)(C)c1cc(O)c2c(c1)OC(C)(C)C1CCC(=O)CC21 (centres unmarked) [Nabilone]
USP Classification of solubility ([1]; 1,4-Dioxane): Freely Soluble
USP Classification of solubility ([1]; 2-Methyltetrahydrofuran): Freely Soluble
USP Classification of solubility ([1]; Acetone): Freely Soluble
USP Classification of solubility ([1]; Dichloromethane): Freely Soluble
USP Classification of solubility ([1]; Dimethoxyethane): Freely Soluble
USP Classification of solubility ([1]; Dimethyl sulfoxide): Freely Soluble
USP Classification of solubility ([1]; Dimethylformamide): Freely Soluble
USP Classification of solubility ([1]; Methyl ethyl ketone): Freely Soluble
USP Classification of solubility ([1]; Tetrahydrofuran): Freely Soluble
USP Classification of solubility ([1]; p-Xylene): Freely Soluble
Solubility in water (USP classification) ([1]; water at any pH): insoluble
Observation After Centrifuge (14000 rpm, 10 minutes) ([2]; not heated): Clear solution
Observation Before Centrifuge ([2]; not heated): Turbid
Nabilone recovered from oil phase (w/w in mg/mL) ([2]; not heated): 3.9 mg/mL
Observation After Centrifuge (14000 rpm, 10 minutes) ([2]; heated to 90° C. for 3 hours): Clear solution
Observation Before Centrifuge ([2]; heated to 90° C. for 3 hours): Turbid
Nabilone recovered from oil phase (w/w in mg/mL) ([2]; heated to 90° C. for 3 hours): 6.3 mg/mL

— US20260207483A1, “PHARMACEUTICAL CO[…] FOR THE TREATMENT OF OPHTHALMIC CONDITIONS” (Adtech Pharma, Inc., priority 2022, published 2026)
